Laboratory results as given in PubChem BioAssay AID1996.
≈ marks a conversion by molar mass, not a printed value.

Settings: buffer; pH 7.4; 200.0 µM
N/C(Cc1nc(-c2ccc(Cl)cc2)cs1)=N/O showed a solubility kinetic of 32.3 µg/mL (≈ 121 µM). For COc1ccc(NC(=S)NC2CCCC2)c(OC)c1, the solubility kinetic was > 42.1 µg/mL. With O=C(NC(Cc1c[nH]c2ccccc12)C(=O)O)c1ccc2c(c1)OCO2 (stereo unspecified) the solubility kinetic was > 52.9 µg/mL. With CCOC(=O)c1c(-c2ccc(OC)cc2)cn2ccccc12 the solubility kinetic was < 0.6 µg/mL. O=C(CCCOc1ccc(Cl)cc1)NCCc1ccccc1 gave a solubility kinetic of 1.5 µg/mL (≈ 4.72 µM). In the case of N#Cc1ccc(N2CCOCC2)nc1, the solubility kinetic is reported as > 28.4 µg/mL. In the case of O=C(c1ccncc1)N1CCc2ccccc2C1, the solubility kinetic is reported as > 35.7 µg/mL. In the case of Cc1ccc(C)c(N(CC(=O)N2CCc3ccccc3C2)S(C)(=O)=O)c1, the solubility kinetic is reported as 52.8 µg/mL (≈ 142 µM). In the case of FC(F)(F)c1cc(N2CCNCC2)c2ccccc2n1, the solubility kinetic is reported as 41.6 µg/mL (≈ 148 µM). Work on CC(C)c1ccc(S(=O)(=O)N2CCN(C(=O)CN3C(=O)c4ccccc4C3=O)CC2)cc1 yielded a solubility kinetic of 3.1 µg/mL (≈ 6.81 µM). Compound Cc1ccc(C)c(CN2CCN(c3ncccn3)CC2)c1 has a solubility kinetic of 17.4 µg/mL (≈ 61.6 µM). With COc1cccc2[nH]c3ccccc3c(=O)c12 the solubility kinetic was > 33.8 µg/mL. For CC(=O)c1cccc(NC(=O)N2CC(C)OC(C)C2)c1 (stereo unspecified), the solubility kinetic was > 41.5 µg/mL. For Cc1ccc(NC(=O)c2ccc(Oc3ncccn3)cc2)cc1, the solubility kinetic was 5 µg/mL (≈ 16.4 µM). With Cc1ccc(NC(=O)c2ccc(OCc3c(C)noc3C)cc2)cc1 the solubility kinetic was < 0.4 µg/mL. With Cc1ccc(NC(=O)N2CCCC(C(=O)O)C2)cc1 (stereo unspecified) the solubility kinetic was > 39.3 µg/mL. For Cc1cccc(NC(=O)COC(=O)CCc2ccccc2)c1C, the solubility kinetic was 5.9 µg/mL (≈ 18.9 µM). For COc1cc(OC)cc(C(=O)N[C@H](C(=O)NCc2ccco2)C(C)C)c1, the solubility kinetic was 45.3 µg/mL (≈ 126 µM). CC(C)(C)n1cnc2cc(NC(=O)c3ccc(Cl)cc3)ccc21 showed a solubility kinetic of 33.4 µg/mL (≈ 102 µM). For Cc1ccc(NC(=O)NCCN2CCCCC2)cc1, the solubility kinetic was > 39.2 µg/mL. Work on CCC(C)c1ccc(NC(=O)c2ccco2)cc1 (stereo unspecified) yielded a solubility kinetic of 24.6 µg/mL (≈ 101 µM). With COc1ccc(CN2CCC(C)CC2)cc1OCc1ccccc1 the solubility kinetic was 45.3 µg/mL (≈ 139 µM). In the case of COc1ccc(S(=O)(=O)N(C)CC(=O)NCCN2CCOCC2)cc1, the solubility kinetic is reported as 51.5 µg/mL (≈ 139 µM). S=c1nc(-c2ccc(Br)cc2)[nH]c2ccccc12 showed a solubility kinetic of 0.7 µg/mL (≈ 2.21 µM). CCN1C(=O)c2ccccc2Sc2ccc(C(=O)NC(C)C)cc21 gave a solubility kinetic of 47.9 µg/mL (≈ 141 µM). For Cc1cc(O)c(C(=O)/C=C/c2cccc([N+](=O)[O-])c2)c(=O)o1, the solubility kinetic was > 45.2 µg/mL. With COC(=O)c1ccc(OC(=O)CN2C(=O)c3ccccc3C2=O)cc1 the solubility kinetic was 50.6 µg/mL (≈ 149 µM). With CN1CC(=O)Nc2ccccc2C1=O the solubility kinetic was > 28.5 µg/mL. With CC(NC(=O)CCC(=O)N1CCCCCC1)c1ccccc1 (stereo unspecified) the solubility kinetic was > 45.4 µg/mL. For Cc1ccc(C)c(-n2c(C)nc3ccccc3c2=O)c1, the solubility kinetic was > 39.6 µg/mL. In the case of CCc1cc(=O)[nH]c(SCCc2ccccc2)n1, the solubility kinetic is reported as > 39.1 µg/mL. Compound CN(Cc1cnccn1)Cc1nc(Cc2cccc(F)c2)no1 has a solubility kinetic of 46.3 µg/mL (≈ 148 µM). Nc1ccccc1SC1CC(=O)N(c2ccc3c(c2)OCCO3)C1=O (stereo unspecified) showed a solubility kinetic of 0.9 µg/mL (≈ 2.53 µM). For C/C=C(\C)C(=O)N1CCC(C(=O)c2ccccc2)CC1, the solubility kinetic was > 40.7 µg/mL. Cc1cc(C)c(OCCCn2ccnc2)c(C)c1 gave a solubility kinetic of 27.2 µg/mL (≈ 111 µM). In the case of CCOC(=O)Cn1nc(C)c(NC(=O)COc2ccc(OC)cc2)c1C, the solubility kinetic is reported as > 54.2 µg/mL. In the case of Cc1ccc(SC(C)C(=O)NC2CC2)cc1 (stereo unspecified), the solubility kinetic is reported as > 35.3 µg/mL. For CCOc1ccc(CNCCCSc2ncccn2)cc1, the solubility kinetic was > 45.5 µg/mL. With Cc1cc(=O)[nH]c2c3ccccc3nn12 the solubility kinetic was > 29.9 µg/mL. With CC(C)CN(C(=O)CN(C)CC(=O)Nc1ccccc1C#N)c1c(N)n(CC(C)C)c(=O)[nH]c1=O the solubility kinetic was > 72.5 µg/mL. COc1ccc(CN2CCSCC2)c(C)c1C showed a solubility kinetic of 5.7 µg/mL (≈ 22.7 µM). Work on Cc1noc(NC(=O)c2ccc(Cl)cc2)c1Cl yielded a solubility kinetic of 28.2 µg/mL (≈ 104 µM). In the case of O=C(Nc1cccs1)N1CCN(c2ncccn2)CC1, the solubility kinetic is reported as > 43.4 µg/mL. In the case of O=C(CN1CCN(Cc2ccccc2)CC1)Nc1nc2ccccc2s1, the solubility kinetic is reported as 47.4 µg/mL (≈ 129 µM). Work on COc1ccc(CC(=O)NC2CCCc3ccccc32)cc1 (stereo unspecified) yielded a solubility kinetic of 15.8 µg/mL (≈ 53.5 µM). In the case of CCC(CO)NC(=O)c1ccccc1C(F)(F)F (stereo unspecified), the solubility kinetic is reported as 28 µg/mL (≈ 107 µM). Compound O=C(CN1CCN(c2ccc(O)cc2)CC1)Nc1ccc(S(=O)(=O)N2CCCC2)cc1 has a solubility kinetic of 44.6 µg/mL (≈ 100 µM). For O=C1CC(Sc2ccc(Cl)cc2)C(=O)N1Cc1ccncc1 (stereo unspecified), the solubility kinetic was 18.9 µg/mL (≈ 56.8 µM). With COC(=O)c1sccc1NC(=O)c1cccs1 the solubility kinetic was < 0.6 µg/mL. For COC(=O)C1CC(=O)N(Cc2ccccc2)C1 (stereo unspecified), the solubility kinetic was > 35 µg/mL. For O=C(NC(=S)NC1CCCC1)c1ccccc1, the solubility kinetic was 16.9 µg/mL (≈ 68 µM). In the case of NCCc1cnc[nH]1, the solubility kinetic is reported as 14.1 µg/mL (≈ 127 µM). Cc1cc(C)cc(OCC(=O)Nc2cc(C)on2)c1 showed a solubility kinetic of 1.5 µg/mL (≈ 5.76 µM). With Nc1ncnc(Nc2c(F)cccc2F)n1 the solubility kinetic was > 33.5 µg/mL. C=CCSc1nc2sc3c(c2c(=O)n1CC)CCC3 gave a solubility kinetic of 0.8 µg/mL (≈ 2.74 µM). In the case of Cc1cc(=O)n(C(C)(C)C)c(=O)n1Cc1ccccc1, the solubility kinetic is reported as > 40.9 µg/mL. In the case of Cc1ccc(C(=O)CCC(=O)Nc2ccc(C)cn2)cc1, the solubility kinetic is reported as 3.4 µg/mL (≈ 12 µM). In the case of Cc1ccc(N(Cc2ccccc2O)C(=O)c2ccccc2F)cc1, the solubility kinetic is reported as < 0.7 µg/mL. With CCN1C(=O)c2ccc(C(=O)Nc3ccc(O)cc3C)cc2C1=O the solubility kinetic was > 48.7 µg/mL. For COc1ccc(NC(=S)NCc2ccccn2)cc1OC, the solubility kinetic was > 45.5 µg/mL. With CC(C)NCc1nnc(-c2ccc(Cl)cc2)o1 the solubility kinetic was > 37.8 µg/mL.
